In paper PMC11193111 (2024):

System: THF-containing double-stranded 17-mer oligodeoxynucleotide (DNA, mismatch bulge abasic, tetrahydrofuran (THF, abasic site analogue) at 6 of strand 1) TCACCNTCGTACGACTC/GAGTCGTACGACGGTGA
Assay: thiazole orange displacement, fluorescence
Conditions: 100 mM KCl, 20 mM Tris-HCl pH 7.4, 0.01% Tween-20, room temperature, 250 nM thiazole orange displaced, 50 nM DNA

| SMILES | apparent DNA binding constant |
| --- | --- |
| NCCNc1ccc(NCCN)c2c1C(=O)c1ccncc1C2=O | 1.25 ± 0.32 µM |
| O=C1c2c(O)ccc(O)c2C(=O)c2c(NCCNCCO)ccc(NCCNCCO)c21 | 0.083 ± 0.003 µM |
